# Legend:
# naïve CD4+ T cells = type: cell-based, mouse
# [1] = system: Human peripheral blood mononuclear cells (PBMC); test: Cytokine production by human PBMC; type: cell-based
# CD-1 mice = test: Anti-CD3-induced cytokines in mouse plasma; type: in vivo; conditions: 20 mg/kg i.p., anti-CD3 1hr or 6hr later, plasma 2hr post-anti-CD3
# Rag2−/− hosts = test: CD4+ CD45RBhi T cell adoptive transfer model of colitis; type: in vivo
# phosphorylated-PLCγ1 = test: In vivo target engagement assay; parameters: species or system mouse; conditions: 40 mg/kg oral, 2hr or 6hr post-treatment, ex vivo anti-CD3/CD28 stimulation
# [2] = system: HCT116 colorectal carcinoma cell line; test: Inhibition of proliferation of HCT116 cells; type: cell-based; conditions: read-out: IC50 of inhibition of proliferation; HCT116, general cytotoxicity
# polarized CD4+ T cells [3] = test: P-selectin; type: cell-based, mouse
# polarized CD4+ T cells [4] = test: Transwell cell migration assay; type: cell-based, mouse; conditions: 3hr, cells cultured with 25 or 50nM PRN694
# ITK = conditions: versus e.g. BMS-509744 and BMS-488516; Fig. 1B
structure (smiles),measurement,setting,value
C=CC(=O)N1CCC[C@@H]1Cn1c(NC(=O)c2ccc(C(F)F)s2)nc2cc(CN[C@@H](C)C(C)(C)C)ccc21 [PRN694],inhibition of IFN-γ production by TH1 cells,"naïve CD4+ T cells; 25nM PRN694, TH1-polarizing conditions, 72hr, PMA/Ionomycin restimulation 5hr",> 50%
same,"expression levels of transcription factors (T-bet, GATA-3, RORγt)","naïve CD4+ T cells; TH1, TH2, TH17 polarization with inhibitor",decreased
same,IL-2 production by in vitro polarized CD4+ T cells,"naïve CD4+ T cells; all three lineages of T helper cells, 72hr",inhibited
same,inhibition of IL-4 production by TH2 cells,"naïve CD4+ T cells; any of the doses tested, TH2-polarizing conditions, 72hr",< 50%
same,"increase in IFN-γ, IL-6 and IL-2 induced by anti-CD3/CD28","[1]; 20nM PRN694, 18hr",strongly inhibited
same,"increase in IFN-γ, IL-6 and IL-2 induced by anti-CD3/CD28","[1]; 5.0μM PRN694, 18hr",completely blocked
same,ability to inhibit IL-2 production on thapsigargin stimulation,"[1]; PBMC stimulated with thapsigargin 10 μM, 18hr",strongly impaired
same,"increase in plasma IFN-γ, IL-6 and IL-2 induced by anti-CD3",CD-1 mice,inhibited
same,toxicity during long-term in vivo administration,Rag2−/− hosts; 7 week dosing time frame,no apparent toxicity
same,CD4+ T cell proportions in intestinal epithelium and LP versus vehicle,Rag2−/− hosts; 7 weeks post-transfer,significantly less
same,expression of integrin α4β7 and CCR6 on intestinal epithelial CD4+ T cells,Rag2−/− hosts; 7 weeks post-transfer,reduced
same,histological analysis of the colonic epithelium,"Rag2−/− hosts; 7 weeks post-transfer, H&E",reduced inflammation
same,proportions of cells capable of producing IL-2,"Rag2−/− hosts; 7 weeks post-transfer, PMA/Ionomycin",reduced proportions
same,reduced colon length,"Rag2−/− hosts; 7 weeks post-transfer, oral dosing",prevented
same,proportions of CD4+ T cells expressing Foxp3,"Rag2−/− hosts; all organs examined, 7 weeks post-transfer",significantly reduced
same,behavioral indications of toxicity,Rag2−/− hosts; long-term in vivo administration,no behavioral indications of drug-mediated toxicity
same,proportions of CD4+ T cells producing IFN-γ,"Rag2−/− hosts; mesenteric LN, IEL and LP, 7 weeks post-transfer, PMA/Ionomycin",markedly reduced
same,weight change (disease progression),"Rag2−/− hosts; oral 40 mg/kg once a day or 20 mg/kg twice a day, 7 weeks",no weight loss
same,phosphorylation of PLCγ1,phosphorylated-PLCγ1,completely blocked
same,IC50,[2],10 µM
same,P-selectin binding of TH1 and TH17 cells,polarized CD4+ T cells [3]; differentiated 72hr with 25 or 50nM PRN694,reduced P-selectin binding
same,P-selectin binding of TH2 cells,polarized CD4+ T cells [3]; only visible in the higher dose of inhibitor (50nM),only a modest reduction
same,TH17 migration to CCL20,polarized CD4+ T cells [4]; CCL20 100 ng/mL,reduced approximately two-fold
same,TH1 migration to CXCL11,polarized CD4+ T cells [4]; CXCL11 100 ng/mL,inhibited
same,fold more potent in inhibiting ITK than previously-described ITK inhibitors,ITK,63- to 320 fold

# From publication PMC4635571 (Journal of immunology (Baltimore, Md. : 1950), 2015)
